Broadly, the pIC50 is the negative decadic logarithm of the IC50, by convention in mol/L. The % inhibition is the drop in the measured response relative to a control, in per cent. As usually defined, the ED50 is the midpoint of the dose-response relation. One may read the inhibition in vivo as the drop in the measured response relative to a control, in per cent.

pIC50: −log10 of the molar value. Structures can show the parent of a compound that is named as a salt.

One assay deals with PDE10A (Homo sapiens (Human), UniProt Q9Y233). The experiment in a line: Measurement of PDE10A inhibitory activity-2 (PDE10A fraction prepared from MOLT-4 cells). The following applies: PDE10A fraction from MOLT-4 cells (peak around 250 mM NaCl). The format is biochemical. In outline:
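Enzyme source was a PDE10A-containing fraction from MOLT-4 cell soluble extract, resolved by HiTrap Q anion exchange with a 0–0.8 M NaCl gradient and selected by cAMP-hydrolysing activity. IC50 determined with this fraction by the same procedure as the preceding PDE10A assay.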

Assay [1] relates to Male C57BL/6 Cr mice. The experiment in a line: Test on suppression of phencyclidine-induced hyperlocomotion in mice. In kind it is in vivo, mouse. The following applies: locomotor activity, test compound 10 mg/kg oral, phencyclidine 5 mg/kg s.c. approx. 1 hour later, measured for 1 hour; for inhibition in vivo at 10 mg/kg: Mus musculus, po, 1 h.
Assay [2] has as its system Male C57BL/6 Cr mice. The description is as above. In kind it is in vivo. The following applies: Mus musculus, oral, calculated by the linear regression method.
The target in assay [3] is PDE10A (H-PDE10A2, Human Phosphodiesterase 10A2) (Homo sapiens (Human), UniProt Q9Y233). The experiment in a line: Measurement of PDE10A inhibitory activity-1 (3H-cAMP, recombinant enzyme). The format is biochemical. The settings on record: H-PDE10A2, 64 nM cAMP, 25° C., 2 hours. The protocol:
To a solution containing 20 mM Tris-HCl (pH 7.5), 1 mM MgCl2, 100 μM EDTA, 330 μg/ml bovine serum albumin, 50 kU/ml 5′-nucleotidase, 0.1 μCi ^3H-cAMP (64 nM cAMP), and PDE10A (H-PDE10A2, Human Phosphodiesterase 10A2, Scottish Biomedical), a test compound was added, and the mixture was reacted at 25° C. for 2 hours. To the reaction solution, QAE-Sephadex (17-0190-01, GE Healthcare Japan Corp.) suspended in 10 mM HEPES-Na (pH 7.0) (hereinafter, also referred to as a “QAE-Sephadex suspension”) was added, and the mixture was shaken for 1 minute and left standing for 5 minutes to obtain a supernatant. To the supernatant, a QAE-Sephadex suspension was further added, and the mixture was shaken for 1 minute and left standing for 5 minutes. Then, the obtained supernatant was transferred to LumaPlate (PerkinElmer, Inc.) and assayed using a radiation counter (TopCount NXT, PerkinElmer, Inc.).
The value of the sample reacted without the addition of both a test compound and PDE10A was defined as 0%, and the value of the sample reacted in the presence of PDE10A without the addition of a test compound was defined as 100%.

PDE10A (H-PDE10A2, Human Phosphodiesterase 10A2), sequence (Q9Y233 267-1055): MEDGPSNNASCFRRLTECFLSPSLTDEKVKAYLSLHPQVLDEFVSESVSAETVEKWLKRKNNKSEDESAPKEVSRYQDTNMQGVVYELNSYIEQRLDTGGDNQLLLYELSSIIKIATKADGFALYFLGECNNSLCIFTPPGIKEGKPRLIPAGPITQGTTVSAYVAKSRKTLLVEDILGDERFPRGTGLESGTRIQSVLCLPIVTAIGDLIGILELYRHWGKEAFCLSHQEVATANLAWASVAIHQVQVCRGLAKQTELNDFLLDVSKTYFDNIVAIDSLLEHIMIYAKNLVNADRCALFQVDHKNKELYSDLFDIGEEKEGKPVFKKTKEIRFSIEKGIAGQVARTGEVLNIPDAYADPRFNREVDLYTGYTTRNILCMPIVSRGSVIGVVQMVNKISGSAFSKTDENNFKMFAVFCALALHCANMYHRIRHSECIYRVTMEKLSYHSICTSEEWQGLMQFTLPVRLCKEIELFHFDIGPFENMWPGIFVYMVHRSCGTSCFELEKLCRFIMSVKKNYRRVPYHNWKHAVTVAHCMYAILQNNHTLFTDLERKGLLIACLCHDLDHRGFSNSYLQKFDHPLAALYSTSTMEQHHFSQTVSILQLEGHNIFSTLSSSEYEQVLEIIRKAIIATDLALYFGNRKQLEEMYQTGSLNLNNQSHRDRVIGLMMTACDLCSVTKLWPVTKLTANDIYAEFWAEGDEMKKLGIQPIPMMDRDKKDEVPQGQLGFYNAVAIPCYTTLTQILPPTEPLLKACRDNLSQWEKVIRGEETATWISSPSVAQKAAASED
PDE10A, sequence (Q9Y233 whole entry): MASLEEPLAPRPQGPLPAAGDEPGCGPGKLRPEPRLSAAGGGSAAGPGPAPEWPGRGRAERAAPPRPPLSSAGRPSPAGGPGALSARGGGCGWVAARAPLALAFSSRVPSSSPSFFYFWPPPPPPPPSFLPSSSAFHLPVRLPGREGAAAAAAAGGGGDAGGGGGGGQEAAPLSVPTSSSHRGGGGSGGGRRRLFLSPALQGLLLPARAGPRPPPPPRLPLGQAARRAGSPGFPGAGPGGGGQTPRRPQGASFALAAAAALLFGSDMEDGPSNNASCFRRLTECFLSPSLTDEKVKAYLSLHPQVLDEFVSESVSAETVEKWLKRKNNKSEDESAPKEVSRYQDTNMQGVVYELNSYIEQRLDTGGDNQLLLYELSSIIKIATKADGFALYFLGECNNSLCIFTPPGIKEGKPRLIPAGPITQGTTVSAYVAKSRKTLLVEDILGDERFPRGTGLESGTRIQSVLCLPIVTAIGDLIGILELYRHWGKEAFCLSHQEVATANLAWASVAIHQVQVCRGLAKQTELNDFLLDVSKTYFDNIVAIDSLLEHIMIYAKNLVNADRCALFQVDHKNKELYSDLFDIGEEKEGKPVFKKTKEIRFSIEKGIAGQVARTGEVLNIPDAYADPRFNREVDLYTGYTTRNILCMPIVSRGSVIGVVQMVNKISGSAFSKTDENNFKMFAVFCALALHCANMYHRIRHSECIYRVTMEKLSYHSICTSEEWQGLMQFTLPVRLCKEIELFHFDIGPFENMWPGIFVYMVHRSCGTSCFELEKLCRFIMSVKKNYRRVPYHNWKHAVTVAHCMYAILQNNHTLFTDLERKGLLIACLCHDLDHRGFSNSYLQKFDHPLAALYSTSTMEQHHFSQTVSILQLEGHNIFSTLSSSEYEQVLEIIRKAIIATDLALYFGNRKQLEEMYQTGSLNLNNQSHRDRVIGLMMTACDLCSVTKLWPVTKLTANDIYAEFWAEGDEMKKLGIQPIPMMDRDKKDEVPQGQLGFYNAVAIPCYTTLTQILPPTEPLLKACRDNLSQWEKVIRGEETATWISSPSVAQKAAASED

`COCc1cccc2nc(NC(=O)c3sc4c(C(C)=O)ccc(COC)c4c3C)ccc12` [Example 69, 7-Acetyl-4-(methoxymethyl)-N-(5-(methoxymethyl)quinolin-2-yl)-3-methylbenzo[b]thiophene-2-carboxamide methanesulfonate] gave a negative logarithm of the IC50 (pIC50) against PDE10A (methanesulfonate) of 9.42. Further, in the assay with Male C57BL/6 Cr mice [1], the “% inhibition” value stood at 81%. The ED50 in the assay with Male C57BL/6 Cr mice [2] is 3 mg/kg.
On to `COCc1ccc(C(C)=O)c2sc(C(=O)Nc3cc(CN4CC[C@@H](O)C4)c4ccccc4n3)c(C)c12` [Example 39, (R)-7-Acetyl-N-(4-((3-hydroxypyrrolidin-1-yl)methyl)quinolin-2-yl)-4-(methoxymethyl)-3-methylbenzo[b]thiophene-2-carboxamide], for which the negative-log IC50 (pIC50) against PDE10A is 9.46; in assay [3] it was 9.39. Also, the inhibition in vivo at 10 mg/kg with Male C57BL/6 Cr mice [1] stood at 103%. The median effective dose (ED50) with Male C57BL/6 Cr mice [2] was 3.1 mg/kg.
At PDE10A, `COCc1ccc(C(C)=O)c2sc(C(=O)Nc3ccc4c(CN5CC[C@@H](O)C5)cccc4n3)c(C)c12` [Example 64, (R)-7-Acetyl-N-(5-((3-hydroxypyrrolidin-1-yl)methyl)quinolin-2-yl)-4-(methoxymethyl)-3-methylbenzo[b]thiophene-2-carboxamide dihydrochloride] had a pIC50 of 9.12. Moreover, the inhibition in vivo at 10 mg/kg with Male C57BL/6 Cr mice [1] is 109%. In the assay on Male C57BL/6 Cr mice [2], the 50% effective dose (ED50) was 7.2 mg/kg.
`COCc1ccc(C(C)=O)c2sc(C(=O)Nc3ccc4c(C(=O)N5CC(OC)C5)cccc4n3)c(C)c12.Cc1ccc(S(=O)(=O)O)cc1` [Example 106, 7-Acetyl-N-(5-((3-methoxyazetidin-1-yl)carbonyl)quinolin-2-yl)-4-(methoxymethyl)-3-methylbenzo[b]thiophene-2-carboxamide p-toluenesulfonate] had a pIC50 against PDE10A (p-toluenesulfonate) of 9.30. For the same molecule, the “% inhibition” value with Male C57BL/6 Cr mice [1] was found to be 87%. Besides, the ED50 with Male C57BL/6 Cr mice [2] is 2.2 mg/kg.
Regarding `COCc1ccc(C(C)=O)c2sc(C(=O)Nc3cc(CN4CC[C@H](O)C4)c4ccccc4n3)c(C)c12` [Example 38, (S)-7-Acetyl-N-(4-((3-hydroxypyrrolidin-1-yl)methyl)quinolin-2-yl)-4-(methoxymethyl)-3-methylbenzo[b]thiophene-2-carboxamide], the pIC50 on PDE10A was 9.64; in assay [3] it was 9.38. Further, in the assay with Male C57BL/6 Cr mice [1], the inhibition in vivo at 10 mg/kg was found to be 88%. For the same molecule, the ED50 in the assay with Male C57BL/6 Cr mice [2] is 7 mg/kg.
Regarding `COCc1cccc2nc(NC(=O)c3sc4c(C(C)=O)ccc(COC)c4c3C)ccc12.Cl` [Example 68, 7-Acetyl-4-(methoxymethyl)-N-(5-(methoxymethyl)quinolin-2-yl)-3-methylbenzo[b]thiophene-2-carboxamide hydrochloride], the pIC50 is 9.03 against PDE10A (hydrochloride) and 8.72 in assay [3] (hydrochloride). Moreover, the “% inhibition” value with Male C57BL/6 Cr mice [1] was 121%. In addition, in the assay on Male C57BL/6 Cr mice [2], the ED50 was 3.6 mg/kg.
